What was measured:
[1] = Anatomic pathology (heart and kidney histopathology) in mice; format: in vivo, CD-1 mice; settings: 20 mg/kg intravenously daily for 9 days, microscopic histopathology on day 10
Summary of the method: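 Histopathology on H&E-stained, paraffin-embedded sections, subjectively scored (slight, mild, moderate, marked, severe) relative to untreated controls. Dosing: glycopeptide antibiotics 20 mg/kg intravenously once daily ×9 days in 20-day-old CD-1 mice, n=5 per group including vehicle.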

[2] = system: Staphylococcus aureus-SMITH (GC 4543); assay: Acute lethal infection in mice (ED50); format: in vivo; settings: female CD-1 mice, intraperitoneal challenge, intravenous dose 30 min. after infection, 7 day survival ratios
Summary of the method: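 Bacteria suspended in Trypticase Soy Broth or hog gastric mucin are injected intraperitoneally into female CD-1 mice at a dose killing untreated animals within 24-48 hr. Thirty minutes later, test agent is administered intravenously. Survival at day 7 is scored.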

Enterococcus sp. = assay: In vitro antibacterial evaluation: minimum inhibitory concentration (MIC), broth dilution method; format: cell-based; settings: 18 hours at 35° C.
Summary of the method: (§1)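 Inoculum: 5×10^5 CFU/mL. Range: 64-0.06 μg/mL. Medium: Muller-Hinton II […]; NCCLS M7-A2 broth dilution. Endpoint: lowest concentration inhibiting growth. Strains include methicillin-, penicillin- and/or vancomycin-resistant clinical isolates.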

Escherichia coli = assay: as above; format: cell-based; settings: 18 hours at 35° C.
Summary of the method: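 Broth dilution per NCCLS M7-A2 in Muller-Hinton II […], inoculum 5×10^5 CFU/mL, antibiotic tested over 64-0.06 μg/mL. MIC is taken as the lowest concentration that inhibits growth. Panel includes recent clinical isolates resistant to methicillin, penicillin and/or vancomycin.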

Streptococcus sp. = assay: as above; format: cell-based; settings: 18 hours at 35° C.
Summary of the method: as §1

Staphylococcus sp. = assay: as above; format: cell-based; settings: 18 hours at 35° C.
Summary of the method: as §1

[3] = Enterococcus faecalis (ATCC 29212)
[4] = Enterococcus faecalis (GC 2242)
[5] = Enterococcus faecalis (GC 2691)
[6] = Enterococcus faecalis (GC 3059)
[7] = Enterococcus faecalis (GC 4552)
[8] = Enterococcus faecalis (GC 4553)
[9] = Enterococcus faecalis (GC 4554)
[10] = Enterococcus faecalis (GC 6189)
[11] = broth dilution, inoculum 5×10^5 CFU/mL
[12] = Streptococcus pneumoniae (ATCC 6301)
[13] = Streptococcus pneumoniae (GC 1894)
[14] = Streptococcus pneumoniae (GC 4565)

COc1ccc2cc(COC3C(CO)OC(OC4C(CO)OC(Oc5ccc(CC6NC(=O)C(C(C)c7ccccc7)NC(=O)CNC(=O)C(CO)NC(=O)C(C(O)C7CNC(=N)N7C7OC(CO)C(O)C(O)C7O)NC(=O)C(C(O)C7CNC(=N)N7)NC6=O)cc5)C(O)C4O)C(O)C3O)ccc2c1 (stereo not drawn) [Example 230a, Cyclo[glycyl-β-methylphenylalanyl-O-[4-O-[4-O-[(6-methoxy-2-naphthyl)methyl]hexopyranosyl]hexopyranosyl]tyrosyl-3-(2-iminoimidazolidin-4-yl)seryl-3-(3-hexopyranosyl-2-iminoimidazolidin-4-yl)serylseryl]]
<0.06 µg/mL: MIC Streptococcus pneumoniae (ATCC 6301) (Streptococcus sp.; [12]) | MIC Streptococcus pneumoniae (GC 1894) (Streptococcus sp.; [13]) | MIC Streptococcus pneumoniae (GC 4565) (Streptococcus sp.; [14]) | MIC Streptococcus pneumoniae (ATCC 6301) (Streptococcus sp.; [11]) | MIC Streptococcus pneumoniae (GC 1894) (Streptococcus sp.; [11]) | MIC Streptococcus pneumoniae (GC 4565) (Streptococcus sp.; [11])
0: Anatomical Pathology (Day 10), Heart [1]
0.06 mg/kg: median effective dose (ED50), Staphylococcus aureus-SMITH (GC 4543) [2]
32 µg/mL: MIC Escherichia coli (ATCC 25922) (Escherichia coli) | MIC Escherichia coli (GC 4559) (Escherichia coli)
0.5 to 1 µg/mL: MIC Staphylococcus aureus (GC 4545) (Staphylococcus sp.)
+: Anatomical Pathology (Day 10), Kidney [1]
0.5 to 2 µg/mL: MIC Coagulase Negative Staphylococcus (GC 4547) (Staphylococcus sp.) | MIC Staphylococcus aureus (GC 1131) (Staphylococcus sp.) | MIC Staphylococcus aureus (GC 4541) (Staphylococcus sp.) | MIC Staphylococcus aureus-SMITH (GC 4543) (Staphylococcus sp.)
2 to 4 µg/mL: MIC Enterococcus avium (GC 4558) (Enterococcus sp.; Enterococcus avium (GC 4558)) | MIC Enterococcus faecalis (ATCC 29212) (Enterococcus sp.; [3]) | MIC Enterococcus faecalis (GC 2242) (Enterococcus sp.; [4]) | MIC Enterococcus faecalis (GC 2691) (Enterococcus sp.; [5]) | MIC Enterococcus faecalis (GC 3059) (Enterococcus sp.; [6]) | MIC Enterococcus faecalis (GC 4552) (Enterococcus sp.; [7]) | MIC Enterococcus faecalis (GC 4553) (Enterococcus sp.; [8]) | MIC Enterococcus faecalis (GC 4554) (Enterococcus sp.; [9]) | MIC Enterococcus faecium (GC 2243) (Enterococcus sp.; Enterococcus faecium (GC 2243)) | MIC Enterococcus faecium (GC 4556) (Enterococcus sp.; Enterococcus faecium (GC 4556)) | MIC Enterococcus avium (GC 4558) (Enterococcus sp.; [11]) | MIC Enterococcus faecalis (ATCC 29212) (Enterococcus sp.; [11]) | MIC Enterococcus faecalis (GC 2242) (Enterococcus sp.; [11]) | MIC Enterococcus faecalis (GC 2691) (Enterococcus sp.; [11]) | MIC Enterococcus faecalis (GC 3059) (Enterococcus sp.; [11]) | MIC Enterococcus faecalis (GC 4552) (Enterococcus sp.; [11]) | MIC Enterococcus faecalis (GC 4553) (Enterococcus sp.; [11]) | MIC Enterococcus faecalis (GC 4554) (Enterococcus sp.; [11]) | MIC Enterococcus faecium (GC 2243) (Enterococcus sp.; [11]) | MIC Enterococcus faecium (GC 4556) (Enterococcus sp.; [11])
1 to 4 µg/mL: MIC Enterococcus faecalis (GC 6189) (Enterococcus sp.; [10]) | MIC Enterococcus faecalis (GC 6189) (Enterococcus sp.; [11])
1 to 2 µg/mL: MIC Enterococcus faecium (GC 4557) (Enterococcus sp.; Enterococcus faecium (GC 4557)) | MIC Enterococcus faecium (GC 4557) (Enterococcus sp.; [11]) | MIC Staphylococcus aureus (ATCC 29213) (Staphylococcus sp.) | MIC Staphylococcus aureus (GC 3051) (Staphylococcus sp.) | MIC Staphylococcus aureus (GC 3053) (Staphylococcus sp.) | MIC Staphylococcus aureus (GC 4544) (Staphylococcus sp.)

COc1ccc2cc(COC3C(CO)OC(OC4C(CO)OC(Oc5ccc(CC6NC(=O)C(C(C)c7ccccc7)NC(=O)CNC(=O)C(CO)NC(=O)C(CC7CNC(=N)N7C7OC(CO)C(O)C(O)C7O)NC(=O)C(CC7CNC(=N)N7)NC6=O)cc5)C(O)C4O)C(O)C3O)ccc2c1 (stereo not drawn) [Example 245a, Cyclo[3-(2-iminoimidazolidin-4-yl)alanyl-3-(3-hexopyranosyl-2-iminoimidazolidin-4-yl)-alanylserylglycyl-β-methylphenylalanyl-O-[4-O-[4-O-[(6-methoxy-2-naphthyl)methyl]-hexopyranosyl]hexopyranosyl]tyrosyl]]
0.5 µg/mL: MIC Streptococcus pneumoniae (ATCC 6301) (Streptococcus sp.; [12]) | MIC Streptococcus pneumoniae (ATCC 6301) (Streptococcus sp.; [11]) | MIC Coagulase Negative Staphylococcus (GC 4549) (Staphylococcus sp.; Coagulase Negative Staphylococcus (GC 4549))
4 µg/mL: MIC Enterococcus avium (GC 4558) (Enterococcus sp.; Enterococcus avium (GC 4558)) | MIC Enterococcus faecalis (GC 2242) (Enterococcus sp.; [4]) | MIC Enterococcus faecalis (GC 3059) (Enterococcus sp.; [6]) | MIC Enterococcus faecalis (GC 4553) (Enterococcus sp.; [8]) | MIC Enterococcus faecium (GC 2243) (Enterococcus sp.; Enterococcus faecium (GC 2243)) | MIC Enterococcus faecium (GC 4556) (Enterococcus sp.; Enterococcus faecium (GC 4556)) | MIC Enterococcus faecalis (GC 2242) (Enterococcus sp.; [11]) | MIC Enterococcus faecalis (GC 3059) (Enterococcus sp.; [11]) | MIC Staphylococcus aureus (GC 1131) (Staphylococcus sp.)
8 µg/mL: MIC Enterococcus faecalis (ATCC 29212) (Enterococcus sp.; [3]) | MIC Enterococcus faecalis (GC 2691) (Enterococcus sp.; [5]) | MIC Enterococcus faecalis (GC 4552) (Enterococcus sp.; [7]) | MIC Enterococcus faecalis (GC 4554) (Enterococcus sp.; [9]) | MIC Enterococcus faecalis (GC 6189) (Enterococcus sp.; [10]) | MIC Enterococcus faecalis (GC 2691) (Enterococcus sp.; [11])
32 µg/mL: MIC Escherichia coli (ATCC 25922) (Escherichia coli) | MIC Escherichia coli (GC 4559) (Escherichia coli)
<0.12 µg/mL: MIC Streptococcus pneumoniae (GC 1894) (Streptococcus sp.; [13]) | MIC Streptococcus pneumoniae (GC 1894) (Streptococcus sp.; [11])
1 µg/mL: MIC Streptococcus agalactiae (GC 4564) (Streptococcus sp.; Streptococcus agalactiae (GC 4564)) | MIC Streptococcus pneumoniae (GC 4565) (Streptococcus sp.; [14]) | MIC Streptococcus pyogenes (GC 4563) (Streptococcus sp.; Streptococcus pyogenes (GC 4563)) | MIC Streptococcus agalactiae (GC 4564) (Streptococcus sp.; [11]) | MIC Streptococcus pneumoniae (GC 4565) (Streptococcus sp.; [11]) | MIC Streptococcus pyogenes (GC 4563) (Streptococcus sp.; [11]) | MIC Coagulase Negative Staphylococcus (GC 4548) (Staphylococcus sp.; Coagulase Negative Staphylococcus (GC 4548)) | MIC Coagulase Negative Staphylococcus (GC 6257) (Staphylococcus sp.; Coagulase Negative Staphylococcus (GC 6257)) | MIC Staphylococcus haemolyticus (GC 4546) (Staphylococcus sp.; Staphylococcus haemolyticus (GC 4546))
+++: Anatomical Pathology (Day 10), Kidney [1]
+: Anatomical Pathology (Day 10), Heart [1]
1 mg/kg: median effective dose (ED50), Staphylococcus aureus-SMITH (GC 4543) [2]
2 µg/mL: MIC Enterococcus faecium (GC 4557) (Enterococcus sp.; Enterococcus faecium (GC 4557)) | MIC Escherichia coli (GC 4560) (Escherichia coli; Escherichia coli (GC 4560)) | MIC Coagulase Negative Staphylococcus (GC 4547) (Staphylococcus sp.) | MIC Coagulase Negative Staphylococcus (GC 4551) (Staphylococcus sp.; Coagulase Negative Staphylococcus (GC 4551)) | MIC Staphylococcus aureus (ATCC 29213) (Staphylococcus sp.) | MIC Staphylococcus aureus (GC 3051) (Staphylococcus sp.) | MIC Staphylococcus aureus (GC 3053) (Staphylococcus sp.) | MIC Staphylococcus aureus (GC 4541) (Staphylococcus sp.) | MIC Staphylococcus aureus (GC 4542) (Staphylococcus sp.; Staphylococcus aureus (GC 4542)) | MIC Staphylococcus aureus (GC 4544) (Staphylococcus sp.) | MIC Staphylococcus aureus (GC 4545) (Staphylococcus sp.) | MIC Staphylococcus aureus-SMITH (GC 4543) (Staphylococcus sp.)
